For assay [1], the target named is T1, CDK7 (Homo sapiens, UniProt P50613).
T1 construct: purchased Carna Biosciences, Inc. 04-108
The experiment in a line: CDK7 enzyme inhibition test. The assay is classed as biochemical. The conditions noted are these: [γ-33P]ATP, MBP substrate, 60 min preincubation at 25°C; Ki=IC50/(1+S/Km); read-out: Ki value of CDK7 inhibitory activity. The essentials: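 Commercial human CDK7 with myelin basic protein substrate in HEPES pH 7.4 buffer with DTT, Triton X-100, MgCl2; compound preincubated 60 min at 25° C, then reaction run 20 min at 30° C after adding [γ-^33P]ATP (500 μM solution). TCA-precipitated ^33P-MBP counted by scintillation; IC50 converted to Ki via Ki=IC50/(1+S/Km).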

The target in assay [2] is T2, CDK2 (Homo sapiens, UniProt P24941).
T2 construct: purchased Invitrogen Corp. PV3267
The experiment in a line: CDK2 enzyme inhibition test. The format is biochemical. Particulars: [γ-33P]ATP, MBP substrate; Ki=IC50/(1+S/Km); read-out: Ki value of CDK2 inhibitory activity. Put shortly:
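Commercial CDK2 phosphorylated MBP with [γ-33P]ATP (500 μM solution before mixing) in HEPES pH 7.4 buffer with DTT, Triton X-100 and MgCl2 for 20 min at 30 °C. TCA-precipitated 33P-MBP was counted by scintillation to give the IC50. Ki = IC50/(1+S/Km), with S the ATP concentration in the reaction.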

Assay [3] relates to human large intestine cancer cell line (HCT-116). Put plainly: Human large intestine cancer (HCT-116) cell growth inhibition test. The assay is classed as cell-based. Put shortly: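 HCT-116 cells were seeded at 0.5 to 2.0×10^3 cells/well in McCoy's 5A with 10% FBS and dosed with compound at 0.1% final DMSO after overnight culture. Growth was measured by sulforhodamine B absorbance after 3 days. GI50 was calculated from the inhibition rate at each concentration.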

For assay [4], the system named is human large intestine cancer cell (HCT 116) tumor. Put plainly: Tumor growth inhibition test in HCT 116-subcutaneously transplanted nude mouse. The assay is classed as in vivo. Particulars: dose of 100 mg/kg, repeated oral administration, HCT-116 in female BALB nude mice, control group = 100%, read-out: rate of suppression of tumor volume. As to the method: A human large intestine cancer cell line (HCT-116) was cultured in a McCoy's 5A medium containing 10% FBS and 1% penicillin/streptomycin/amphotericin B and adjusted to 1.0×10^8 cells/mL with PBS or Hanks solution (HBSS(−)). The prepared cell suspension was subcutaneously injected at 0.1 mL/mouse to the right abdomens of female BALB nude mice (supplied by Charles River Laboratories Japan, Inc.). After rearing for a certain period, the long diameter (mm) and short diameter (mm) of tumor were measured with electronic calipers, and the tumor volume was calculated according to the following expression: Tumor volume (mm^3)=(Long diameter)×(Short diameter)×(Short diameter)×0.5
Individuals whose tumor volume was within the range of 50 to 200 mm^3 were selected and grouped such that the tumor volume was almost equivalent, then a test compound or only a solvent was orally administered in a repeated manner, and the body weights and tumor volume were measured. A test compound was suspended in a 0.5 w/v % aqueous methylcellulose solution (0.5% MC) (manufactured by Wako Pure Chemical Industries, Ltd.) and orally administered at 10 mL/kg in a repeated manner. When the tumor volume of the control group was defined as 100%, the rate of suppression of tumor volume (%) at each dose of the test compound was calculated.

The subject of assay [5] is human large intestine cancer cell line HCT-116. Put plainly: In vitro cell growth inhibitory activity against human large intestine cancer line by combined use with chemotherapeutic. The assay is classed as cell-based. The conditions noted are these: HCT-116, 3 days; SN-38 1 nM, single-agent treatment. As to the method:
A human large intestine cancer cell line HCT-116 (obtained from DS Pharma Biomedical Co., Ltd.) was cultured in a McCoy's 5A medium (manufactured by Thermo Fisher Scientific, Inc.) containing 10% fetal bovine serum (FBS) (manufactured by Thermo Fisher Scientific, Inc.) and 1% penicillin/streptomycin/amphotericin B (manufactured by Thermo Fisher Scientific, Inc.) and inoculated at 0.5 to 2.0×10^3 cells/well to a 96-well plate. The cells were cultured overnight in a carbon dioxide incubator of 37° C. containing 5% carbon dioxide. The medium was replaced with a fresh medium on the next day, and then, a mixed solution of a DMSO solution of a test compound (IV-361, 5-FU or SN-38) with varying concentrations and a cell culture medium (final DMSO concentration: 0.2%) was added thereto. The concentration of the test compound was 10 nM, the concentration of 5-FU (manufactured by Wako Pure Chemical Industries, Ltd.) was 1000 nM, and the concentration of SN-38 (manufactured by Tocris Bioscience) was adjusted to 1 nM to carry out the test. For a control group, a mixed solution of DMSO and a cell culture medium (final DMSO concentration: 0.2%) was used instead of the DMSO solution of the test compound.
After the addition of the DMSO solution of the test compound, the cells were cultured for 3 days in a carbon dioxide incubator. Then, the absorbance (measurement wavelength: 565 nm) of the medium in each group was measured by using In Vitro Toxicology Assay Kit Sulforhodamine B based (manufactured by Sigma-Aldrich Co. LLC.).
The rate of inhibition of growth (%) was calculated according to the expression given below. Specifically, in the case where the difference between the average absorbance before culture (day 0) and the average absorbance after culture in the test compound-administered group is the same as the difference between the average absorbance before culture (day 0) and the average absorbance after culture in the control group, the rate of inhibition of cell growth is 0%. Rate of inhibition of growth=(1−((Average absorbance of the test compound-administered group after culture)−(Average absorbance of the test compound-administered group on day 0))/((Average absorbance of the control group after culture)−(Average absorbance of the control group on day 0)))×100

Assay [6] deals with breast cancer cell line BT-549. Put plainly: Various human cancer cell growth inhibition test: BT-549. The format is cell-based. The conditions noted are these: ATPlite, read-out: GI50 value (concentration necessary for inhibiting 50% of cell growth). From the text:
(§1) A breast cancer cell line BT-549 (obtained from American Type Culture Collection (ATCC)), a uterus cancer cell line C-33A (obtained from ATCC), an ovary cancer cell line PA-1 (obtained from ATCC), a large-cell lung cancer cell line NCI-H460 (obtained from ATCC), a small-cell lung cancer cell line NCI-H82 (obtained from ATCC), a kidney cancer cell line ACHN (obtained from ATCC), a pancreatic cancer cell line BxPC-3 (obtained from ATCC), a malignant melanoma cell line A375 (obtained from ATCC), a throat cancer cell line FaDu (obtained from ATCC), a medulloblastoma cell line Daoy (obtained from ATCC), a cutaneous epithelioid sarcoma cell line VA-ES-BJ (obtained from ATCC), a rhabdomyosarcoma cell line A-204 (obtained from ATCC), a prostate cancer cell line DU145 (obtained from ATCC), a bladder cancer cell line T24 (obtained from ATCC), a lymphoma cell line SR (obtained from ATCC), a neuroblastoma cell line SH-SY5Y (obtained from DS Pharma Biomedical Co., Ltd.), a liver cancer cell line HepG2 (obtained from DS Pharma Biomedical Co., Ltd.), a stomach cancer cell line HGC-27 (obtained from DS Pharma Biomedical Co., Ltd.), and a multiple myeloma cell line NCI-H929 (obtained from DS Pharma Biomedical Co., Ltd.) were used as human cancer cell lines.
(§2) Each cell line was cultured in a cell culture medium recommended by ATCC or DS Pharma Biomedical Co., Ltd. and inoculated at 0.3 to 5.0×10^3 cells/well to a 96-well plate. The cells were cultured overnight in a carbon dioxide incubator of 37° C. containing 5% carbon dioxide. The medium was replaced with a fresh medium on the next day, then replaced with a mixed solution of a DMSO solution of a test compound with varying concentrations and a culture medium (final DMSO concentration: 0.1%), and left standing in a carbon dioxide incubator (day 0). IV-361, IV-379, IV-3, IV-215, IV-299, IV-669, IV-1049, and palbociclib (for comparison) were used as test compounds. For a control group, DMSO was added instead of the DMSO solution of the test compound to a cell culture medium (final DMSO concentration: 0.1%).
(§3) After culture for a predetermined period, the ATP activity of BT-549, C-33A, PA-1, NCI-H460, NCI-H82, ACHN, BxPC-3, A375, FaDu, Daoy, VA-ES-BJ, A-204, DU145, T24, and SR was measured by using ATPlite (manufactured by PerkinElmer, Inc.). The ATP activity of SH-SY5Y, HepG2, HGC-27, and NCI-H929 was measured by using CellTiter-Glo (manufactured by Promega Corp.).
(§4) The rate of inhibition of cell growth (%) was calculated according to the expression given below. Specifically, in the case where the difference between the ATP activity before culture (day 0) and the ATP activity after culture in the test compound-administered group is the same as the difference between the ATP activity before culture (day 0) and the ATP activity after culture in the control group, the rate of inhibition of cell growth is 0%. Rate of inhibition of cell growth=(1−((ATP activity of the test compound-administered group after culture)−(ATP activity of the test compound-administered group on day 0))/((ATP activity of the control group after culture)−(ATP activity of the control group on day 0)))×100
(§5) The concentration of the test compound necessary for inhibiting 50% of cell growth (GI50 value) was calculated by using EXSUS (version 8.1.0, manufactured by CAC Exicare Corp.).

Assay [7] deals with uterus cancer cell line C-33A. Put plainly: Various human cancer cell growth inhibition test: C-33A. Particulars: ATPlite, read-out: GI50 value (concentration necessary for inhibiting 50% of cell growth). The assay is classed as cell-based.
Source text: as §1, §2, §3, §4, §5
A general note: In ATP-based viability assays light output follows the ATP content of the culture.

Assay [8] concerns ovary cancer cell line PA-1. Put plainly: Various human cancer cell growth inhibition test: PA-1. The assay is classed as cell-based. Particulars: ATPlite, read-out: GI50 value (concentration necessary for inhibiting 50% of cell growth).
Source text: as §1, §2, §3, §4, §5

For assay [9], the system named is large-cell lung cancer cell line NCI-H460. Put plainly: Various human cancer cell growth inhibition test: NCI-H460. The format is cell-based. Particulars: ATPlite, read-out: GI50 value (concentration necessary for inhibiting 50% of cell growth).
Source text: as §1, §2, §3, §4, §5

The subject of assay [10] is small-cell lung cancer cell line NCI-H82. The experiment in a line: Various human cancer cell growth inhibition test: NCI-H82. The format is cell-based. The conditions noted are these: ATPlite, read-out: GI50 value (concentration necessary for inhibiting 50% of cell growth).
Source text: as §1, §2, §3, §4, §5

The test system of assay [11] is kidney cancer cell line ACHN. The experiment in a line: Various human cancer cell growth inhibition test: ACHN. The assay is classed as cell-based. Particulars: ATPlite, read-out: GI50 value (concentration necessary for inhibiting 50% of cell growth).
Source text: as §1, §2, §3, §4, §5

The test system of assay [12] is pancreatic cancer cell line BxPC-3. The experiment in a line: Various human cancer cell growth inhibition test: BxPC-3. The assay is classed as cell-based. The conditions noted are these: ATPlite, read-out: GI50 value (concentration necessary for inhibiting 50% of cell growth).
Source text: as §1, §2, §3, §4, §5

For assay [13], the system named is malignant melanoma cell line A375. The experiment in a line: Various human cancer cell growth inhibition test: A375. The format is cell-based. The conditions noted are these: A-375, ATPlite, read-out: GI50 value (concentration necessary for inhibiting 50% of cell growth).
Source text: as §1, §2, §3, §4, §5

The subject of assay [14] is throat cancer cell line FaDu. Put plainly: Various human cancer cell growth inhibition test: FaDu. The assay is classed as cell-based. The conditions noted are these: ATPlite, read-out: GI50 value (concentration necessary for inhibiting 50% of cell growth).
Source text: as §1, §2, §3, §4, §5

Assay [15] relates to rhabdomyosarcoma cell line A-204. The experiment in a line: Various human cancer cell growth inhibition test: A-204. The format is cell-based. Particulars: A204, ATPlite, read-out: GI50 value (concentration necessary for inhibiting 50% of cell growth).
Source text: as §1, §2, §3, §4, §5

Assay [16] has as its system lymphoma cell line SR. Put plainly: Various human cancer cell growth inhibition test: SR. Particulars: ATPlite, read-out: GI50 value (concentration necessary for inhibiting 50% of cell growth). The assay is classed as cell-based.
Source text: as §1, §2, §3, §4, §5

SMILES strings stand for the structures. Where two headings read alike, the source gives them in different places.

T1 sequence (P50613 whole entry): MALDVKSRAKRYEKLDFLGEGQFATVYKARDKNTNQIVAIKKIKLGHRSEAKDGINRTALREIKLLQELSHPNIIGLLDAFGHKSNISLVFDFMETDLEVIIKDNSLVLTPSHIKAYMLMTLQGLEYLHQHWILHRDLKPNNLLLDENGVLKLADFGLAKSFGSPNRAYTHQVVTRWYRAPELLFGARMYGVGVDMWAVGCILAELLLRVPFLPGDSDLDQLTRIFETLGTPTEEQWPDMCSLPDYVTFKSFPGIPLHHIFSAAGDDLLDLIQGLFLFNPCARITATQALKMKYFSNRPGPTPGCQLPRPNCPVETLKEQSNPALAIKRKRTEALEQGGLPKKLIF
T1 sequence (P51946 whole entry partner): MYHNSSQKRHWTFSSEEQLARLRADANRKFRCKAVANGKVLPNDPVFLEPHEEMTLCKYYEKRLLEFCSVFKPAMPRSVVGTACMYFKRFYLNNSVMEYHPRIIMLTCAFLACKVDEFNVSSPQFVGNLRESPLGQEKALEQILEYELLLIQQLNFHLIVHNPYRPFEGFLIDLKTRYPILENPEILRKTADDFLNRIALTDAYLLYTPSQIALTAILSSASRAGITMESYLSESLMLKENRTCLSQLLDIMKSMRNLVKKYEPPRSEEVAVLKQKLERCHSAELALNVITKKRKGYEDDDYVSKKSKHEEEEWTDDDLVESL
T1 sequence (P51948 whole entry partner): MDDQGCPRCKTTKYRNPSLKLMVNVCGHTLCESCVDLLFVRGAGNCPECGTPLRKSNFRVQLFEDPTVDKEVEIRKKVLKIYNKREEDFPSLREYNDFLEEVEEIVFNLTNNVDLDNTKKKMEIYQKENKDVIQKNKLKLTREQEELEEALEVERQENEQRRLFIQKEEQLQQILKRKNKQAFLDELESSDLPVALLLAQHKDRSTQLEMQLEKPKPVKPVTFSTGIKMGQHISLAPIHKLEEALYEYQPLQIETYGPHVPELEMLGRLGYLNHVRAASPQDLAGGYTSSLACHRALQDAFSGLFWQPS

`CC1(C)c2[nH]nc(NC(=O)C3([Si](C)(C)C)CCC3)c2CN1C(=O)Nc1ccccc1` [IV-1, 6,6-Dimethyl-N-phenyl-3-[1-(trimethylsilyl)cyclobutanecarboxamido]-4,6-dihydropyrrolo[3,4-c]pyrazole-5(1H)-carboxamide]: the Ki was at most 50 nM in assay [1] and at least 1000 nM in [2]. Further, in [3] (HCT-116, 72 h, culture for 3 days, sulforhodamine B, read-out: GI50 value, HCT-116 cell growth inhibition), the GI50 is at most 100 nM. In addition, in assay [4], the inhibition in vivo at 100 mg/kg is at least 50%.

With `CCc1c2c(nc3ccc(O)cc13)-c1cc3c(c(=O)n1C2)COC(=O)[C@]3(O)CC` [SN-38, reference compound], the “Rate of inhibition of growth (%)” value in assay [5] is 12%.

For the compound `CC(=O)c1c(C)c2cnc(Nc3ccc(N4CCNCC4)cn3)nc2n(C2CCCC2)c1=O` [Palbociclib, palbociclib, reference compound], the GI50 in assay [3] (HCT-116 (row of Table 50), read-out: GI50 value (concentration necessary for inhibiting 50% of cell growth)) is 300 to 1000 nM; in assay [6] it was at least 1000 nM; in assay [7], at least 1000 nM; in assay [8] it was under 300 nM; in [9], under 300 nM; in [10], at least 1000 nM. Besides, the GI50 was under 300 nM in assay [11]; under 300 nM in assay [12]; under 300 nM in assay [13]; at least 1000 nM in [14]; at least 1000 nM in [15]; under 300 nM in assay [16].

A word on the Ki: it is the dissociation constant of the complex between target and ligand, obtained from inhibition or displacement.

For the origin of these results see patent US10894798B2, “Substituted dihydropyrrolopyrazole derivative” (UBE INDUSTRIES, LTD., priority 2015, dated 2021).
